This note sets out measurements from patent publication US20220313698A1, “MODULATORS OF CYSTIC FIBROSIS TRANSMEMBRANE CONDUCTANCE REGULATOR” (Vertex Pharmaceuticals Incorporated, priority 2019, published 2022).

pEC50: −log10 of the molar value.

The experiment concerns the target CFTR-mediated chloride transport (Homo sapiens, UniProt P13569). In words: Corrector Assay A - membrane potential dye assay (enteroid cells). Conditions: for Corrector Assay A % activity: % of chloride transport of triple combination control (1 μM (14S)-dispiro macrocycle + 3 μM tezacaftor + 300 nM ivacaftor); for pEC50: read-out: Corrector Assay A EC50, human intestinal enteroid cells, 18-24 h incubation, acute 10 μM forskolin + 300 nM ivacaftor.

As a reminder, the pEC50 is the EC50 on a negative log10 scale, so that one unit is a factor of ten. As for `CC(C)COc1cc(F)cc(-c2ccc3c(n2)N2C[C@@H](CCC(c4ccccn4)Nc4cccc(n4)S(=O)(=O)NC3=O)CC2(C)C)c1` (single isomer, unassigned) [Compound 351], the “Corrector Assay A % activity” value is given as “+++ (+++ is >60%)” and the pEC50 was over 6.00.
The corresponding values for `CC1(C)C[C@@H]2CC[C@H](c3ccccn3)Nc3cccc(n3)S(=O)(=O)NC(=O)c3ccc(-c4c(Cl)cccc4Cl)nc3N1C2` [Compound 341] are “+++ (+++ is >60%)” and over 6.00.
For `CC(C)(C)c1ccc2c(n1)N1C[C@@H](CCC(C(=O)O)Nc3cccc(n3)S(=O)(=O)NC2=O)CC1(C)C` (single isomer, unassigned) [Compound 230], the “Corrector Assay A % activity” value is reported as “+++ (+++ is >60%)” and the pEC50 is under 5.52.
The corresponding values for `CC(C)(C)c1ccc2c(n1)N1C[C@@H](CC[C@@H](C3CCOCC3)Nc3cccc(n3)S(=O)(=O)NC2=O)CC1(C)C` (single isomer, unassigned) [Compound 268] are “+++ (+++ is >60%)” and over 6.00.
The corresponding values for `CC1(C)C[C@@H]2CC[C@H](c3ccccn3)Nc3cccc(n3)S(=O)(=O)NC(=O)c3ccc(C4CC4)nc3N1C2` [Compound 349] are “+++ (+++ is >60%)” and over 6.00.
The corresponding values for `CC(C)(C)c1ccnc([C@H]2CC[C@@H]3CN(c4nc(-c5cccc(F)n5)ccc4C(=O)NS(=O)(=O)c4cccc(n4)N2)C(C)(C)C3)c1` [Compound 307, (14S,17R)-17-(4-tert-butylpyridin-2-yl)-8-(6-fluoropyridin-2-yl)-12,12-dimethyl-2λ^6-thia-3,9,11,18,23-pentaazatetracyclo[17.3.1.111,14.05,10]tetracosa-1(22),5,7,9,19(23),20-hexaene-2,2,4-trione] are “+++ (+++ is >60%)” and over 6.00.
As for `Cc1ccc2cc3c(nc2c1)N1C[C@@H](CC[C@@H](c2cc(C(C)(C)C)ccn2)Nc2cccc(n2)S(=O)(=O)NC3=O)CC1(C)C` (single isomer, unassigned) [Compound 8], the “Corrector Assay A % activity” value is reported as “++ (++ is 30-60%)” and the negative logarithm of the EC50 (pEC50) was over 6.00.
The corresponding values for `CC(C)(C)c1ccc2c(n1)N1C[C@@H](CC[C@H](c3cccc(C4CCNCC4)n3)Nc3cccc(n3)S(=O)(=O)NC2=O)CC1(C)C` [Compound 132, (14S,17R)-8-tert-Butyl-12,12-dimethyl-17-[6-(piperidin-4-yl)pyridin-2-yl]-2λ^6-thia-3,9,11,18,23-pentaazatetracyclo[17.3.1.111,14.05,10]tetracosa-1(23),5(10),6,8,19,21-hexaene-2,2,4-trione] are “++ (++ is 30-60%)” and over 6.00.
The corresponding values for `CC(C)(C)c1ccc2c(n1)N1C[C@@H](CC[C@@H](c3cc(CCN)ccn3)Nc3cccc(n3)S(=O)(=O)NC2=O)CC1(C)C` (single isomer, unassigned) [Compound 85] are “++ (++ is 30-60%)” and over 6.00.
With `CC(C)(C)c1ccc2c(n1)N1C[C@@H](CCC(c3ccc(C4CC4)cn3)Nc3cccc(n3)S(=O)(=O)NC2=O)CC1(C)C` (stereo partly drawn) [Compound 170], the “Corrector Assay A % activity” value is listed as “+++ (+++ is >60%)” and the negative logarithm of the EC50 (pEC50) was over 6.00.
As to `CC1(C)C[C@@H]2CC[C@H](c3ccccn3)Nc3cccc(n3)S(=O)(=O)NC(=O)c3ccc(-c4cccc(OCC5CCC5)n4)nc3N1C2` [Compound 313, (14S,17R)-8-[6-(cyclobutylmethoxy)pyridin-2-yl]-12,12-dimethyl-17-(pyridin-2-yl)-2λ^6-thia-3,9,11,18,23-pentaazatetracyclo[17.3.1.111,14.05,10]tetracosa-1(22),5,7,9,19(23),20-hexaene-2,2,4-trione], the “Corrector Assay A % activity” value is listed as “+++ (+++ is >60%)” and the pEC50 is over 6.00.
Turning to `CC(C)(C)c1ccc2c(n1)N1C[C@@H](CCC(c3ccc(C4CCNCC4)cn3)Nc3cccc(n3)S(=O)(=O)NC2=O)CC1(C)C` (stereo partly drawn) [Compound 153], the “Corrector Assay A % activity” value was “++ (++ is 30-60%)” and the pEC50 is over 6.00.
For the compound `Cn1ccc(-c2ccc(C3CC[C@@H]4CN(c5nc(C(C)(C)C)ccc5C(=O)NS(=O)(=O)c5cccc(n5)N3)C(C)(C)C4)nc2)n1` (stereo partly drawn) [Compound 60], the “Corrector Assay A % activity” value is given as “+++ (+++ is >60%)” and the pEC50 is over 6.00.
In the same order, the values of `COC(=O)CCc1ccc(C2CC[C@@H]3CN(c4nc(C(C)(C)C)ccc4C(=O)NS(=O)(=O)c4cccc(n4)N2)C(C)(C)C3)nc1` (stereo partly drawn) [Compound 90] are “++ (++ is 30-60%)” and over 6.00.
In the same order, the values of `CC(C)(C)c1ccc2c(n1)N1C[C@@H](CCC(c3ccc(Br)cn3)Nc3cccc(n3)S(=O)(=O)NC2=O)CC1(C)C` (single isomer, unassigned) [Compound 171] are “++ (++ is 30-60%)” and over 6.00.
In the same order, the values of `CC(C)(C)/C=C/c1ccc2c(n1)N1C[C@@H](CC[C@H](c3ccccn3)Nc3cccc(n3)S(=O)(=O)NC2=O)CC1(C)C` [Compound 106, (14S,17R)-8-[(1E)-3,3-dimethylbut-1-en-1-yl]-12,12-dimethyl-17-(pyridin-2-yl)-2λ^6-thia-3,9,11,18,23-pentaazatetracyclo[17.3.1.111,14.05,10]tetracosa-1(22),5,7,9,19(23),20-hexaene-2,2,4-trione] are “+++ (+++ is >60%)” and over 6.00.
Take `CC(C)(C)c1ccnc(C2CC[C@@H]3CN(c4nc(C(C)(C)C)ccc4C(=O)NS(=O)(=O)c4cccc(n4)N2)C(C)(C)C3)c1` (single isomer, unassigned) [Compound 75]: the “Corrector Assay A % activity” value is on record as “+++ (+++ is >60%)” and the negative-log EC50 (pEC50) was over 6.00.
Take `CC(=O)N1CCC(C2CC[C@@H]3CN(c4nc(C(C)(C)C)ccc4C(=O)NS(=O)(=O)c4cccc(n4)N2)C(C)(C)C3)CC1` (stereo partly drawn) [Compound 228, (14S)-17-(1-Acetylpiperidin-4-yl)-8-tert-butyl-12,12-dimethyl-2λ^6-thia-3,9,11,18,23-pentaazatetracyclo[17.3.1.111,14.05,10]tetracosa-1(23),5(10),6,8,19,21-hexaene-2,2,4-trione]: the “Corrector Assay A % activity” value was “++ (++ is 30-60%)” and the pEC50 is over 6.00.
With `COC(=O)NCc1ccc(C2CC[C@@H]3CN(c4nc(C(C)(C)C)ccc4C(=O)NS(=O)(=O)c4cccc(n4)N2)C(C)(C)C3)nc1` (stereo partly drawn) [Compound 89, Methyl N-({6-[(14S)-8-tert-butyl-12,12-dimethyl-2,2,4-trioxo-2λ^6-thia-3,9,11,18,23-pentaazatetracyclo[17.3.1.111,14.05,10]tetracosa-1(23),5(10),6,8,19,21-hexaen-17-yl]pyridin-3-yl}methyl)carbamate], the “Corrector Assay A % activity” value is listed as “++ (++ is 30-60%)” and the pEC50 is over 6.00.
The corresponding values for `CC(C)c1ccc(-c2ccc3c(n2)N2C[C@@H](CC[C@@H](c4ccccn4)Nc4cccc(n4)S(=O)(=O)NC3=O)CC2(C)C)cc1` [Compound 348] are “++ (++ is 30-60%)” and over 6.00.
In the same order, the values of `CC(C)(C)c1ccc2c(n1)N1C[C@@H](CCC(c3cc(CN)ccn3)Nc3cccc(n3)S(=O)(=O)NC2=O)CC1(C)C` (single isomer, unassigned) [Compound 115] are “+++ (+++ is >60%)” and over 6.00.
